Results: patent publication US9365574B2, “Soluble guanylate cyclase activators” (Merck Sharp & Dohme Corp., priority 2010, dated 2016)

What follows are molecules tested on Spontaneously hypertensive rats (SHR) (assay: Acute Efficacy in Spontaneously Hypertensive Rats (SHR), telemetry blood pressure). Settings: dose 0.3 mpk.
Type: in vivo, rat
From the text: Acute Efficacy in Spontaneously Hypertensive Rats (SHR)
Spontaneously hypertensive rats (SHR, male, Charles River) were implanted with DSI TA11PA-C40 telemetry device (Data Sciences, Inc., St. Paul, Minn.) under isoflurane or ketamine/metomidine anesthesia. The telemetry unit catheter was inserted into the descending aorta via the femoral artery and the telemetry device was implanted subcutaneously in the left flank area. Animals were allowed to recover from surgery for 14 days before the start of any studies. Blood pressure, heart rate, and activity signals from conscious, freely moving rats were recorded continuously for 30 seconds every 10 minutes. On the day prior to administration of compound, a single oral dose of vehicle (10% transcutol/20% Cremophor/70% water) was administered to all animals to establish baseline control data. The blood pressure lowering efficacy of compound (PO) or vehicle was evaluated following a single oral gavage. Data were collected as hourly averages, and changes in blood pressure were calculated by subtracting control baseline data on an hourly basis. Animals were maintained on normal diet with a 12 hour light-dark cycle.
Maximum peak decreases of systolic blood pressure (SBP) in SHR at a particular P.O. dose (mpk milligrams per kilogram) for the following representative compounds are provided.

SMILES | Maximum SBP reduction [mmHg]
CCn1cc(C2(C)C(=O)Nc3nc(-c4nn(CCC(F)(F)C(F)(F)F)c5ncccc45)nc(N)c32)nn1 (stereo not drawn) [Example 173, 4-Amino-5-(1-Ethyl-1H-1,2,3-Triazol-4-yl)-5-Methyl-2-[1-(3,3,4,4,4-Pentafluorobutyl)-1H-Pyrazolo[3,4-B]Pyridin-3-yl]-5,7-Dihydro-6H-Pyrrolo[2,3-D]Pyrimidin-6-One] | 66 ± 6
Cc1nnc(C2(C)C(=O)Nc3nc(-c4nn(CCC(F)(F)C(F)(F)F)c5ncccc45)nc(N)c32)o1 (stereo not drawn) [Example 169, 4-Amino-5-Methyl-5-(5-Methyl-1,3,4-Oxadiazol-2-yl)-2-[1-(3,3,4,4,4-Pentafluorobutyl)-1H-Pyrazolo[3,4-B]Pyridin-3-yl]-5,7-Dihydro-6H-Pyrrolo[2,3-D]Pyrimidin-6-One] | 52 ± 5

Same assay, conditions: dose 1.0 mpk

SMILES | Maximum SBP reduction [mmHg]
CC1(c2ncccn2)C(=O)Nc2nc(-c3nn(CCC(F)(F)C(F)(F)F)c4ncccc34)nc(N)c21 (single isomer, unassigned) [Example 170, 4-Amino-5-Methyl-2-[1-(3,3,4,4,4-Pentafluorobutyl)-1H-Pyrazolo[3,4-B]Pyridin-3-yl]-5-Pyrimidin-2-yl-5,7-Dihydro-6H-Pyrrolo[2,3-D]Pyrimidin-6-One] | 65 ± 13

Same assay, conditions: single oral dose 0.1 mpk P.O.

SMILES | Maximum peak decrease of systolic blood pressure (SBP) in SHR, Category
CC1(C(=O)NC2CC2)C(=O)Nc2nc(-c3nn(CCC(F)(F)C(F)(F)F)c4nc(Cl)ccc34)nc(N)c21 (stereo not drawn) [Example 176, 4-Amino-2-(6-Chloro-1-(3,3,4,4,4-Pentafluorobutyl)-1H-Pyrazolo[3,4-B]Pyridin-3-yl)-N-Cyclopropyl-5-Methyl-6-Oxo-6,7-Dihydro-5H-Pyrrolo[2,3-D]Pyrimidine-5-Carboxamide] | C (Category C=SBP in SHRs>40 mmHg)
Cc1ccc2c(-c3nc(N)c4c(n3)NC(=O)C4(C)C(=O)NC3CC3)nn(CCC(F)(F)C(F)(F)F)c2n1 (stereo not drawn) [Example 179, 4-Amino-N-Cyclopropyl-5-Methyl-2-(6-Methyl-1-(3,3,4,4,4-Pentafluorobutyl)-1H-Pyrazolo[3,4-B]Pyridin-3-yl)-6-Oxo-6,7-Dihydro-5H-Pyrrolo[2,3-D]Pyrimidine-5-Carboxamide] | B (Category B=SBP in SHRs 25-40 mmHg)

Same assay, conditions: single oral dose 0.3 mpk P.O.

SMILES | Maximum peak decrease of systolic blood pressure (SBP) in SHR, Category
CC1(C(=O)Nc2ccccc2)C(=O)Nc2nc(-c3nn(CCC(F)(F)C(F)(F)F)c4cc(Cl)ccc34)nc(N)c21 (stereo not drawn) [Example 165, 4-Amino-2-[6-Chloro-1-(3,3,4,4,4-Pentafluorobutyl)-1H-Indazol-3-yl]-5-Methyl-6-Oxo-N-Phenyl-6,7-Dihydro-5H-Pyrrolo[2,3-D]Pyrimidine-5-Carboxamide] | B (Category B=SBP in SHRs 25-40 mmHg)
CC1(C(=O)NC2CC2)C(=O)Nc2nc(-c3nn(CCOC(F)(F)F)c4ncccc34)nc(N)c21 (stereo not drawn) [Example 200, 4-amino-N-cyclopropyl-5-methyl-6-oxo-2-{1-[2-(trifluoromethoxy)ethyl]-1H-pyrazolo[3,4-6]pyridin-3-yl}-6,7-dihydro-5H-pyrrolo[2,3-d]pyrimidine-5-carboxamide] | C (Category C=SBP in SHRs>40 mmHg)
CC1(c2ccccc2)C(=O)Nc2nc(-c3nc(CCC(F)(F)C(F)(F)F)c4ccccn34)nc(N)c21 (single isomer, unassigned) [Example 190, 4-Amino-5-Methyl-2-[1-(3,3,4,4,4-Pentafluorobutyl)Imidazo[1,5-A]Pyridin-3-yl]-5-Phenyl-5,7-Dihydro-6H-Pyrrolo[2,3-D]Pyrimidin-6-One] | B (Category B=SBP in SHRs 25-40 mmHg)
CCn1cc(C2(C)C(=O)Nc3nc(-c4nn(CCC(F)(F)C(F)(F)F)c5ncccc45)nc(N)c32)nn1 (stereo not drawn) [Example 173, 4-Amino-5-(1-Ethyl-1H-1,2,3-Triazol-4-yl)-5-Methyl-2-[1-(3,3,4,4,4-Pentafluorobutyl)-1H-Pyrazolo[3,4-B]Pyridin-3-yl]-5,7-Dihydro-6H-Pyrrolo[2,3-D]Pyrimidin-6-One] | C (Category C=SBP in SHRs>40 mmHg)
Cn1cc(NC(=O)C2(C)C(=O)Nc3nc(-c4nn(CCC(F)(F)C(F)(F)F)c5cc(Cl)ccc45)nc(N)c32)cn1 (stereo not drawn) [Example 217, 4-amino-2-[6-chloro-1-(3,3,4,4,4-pentafluorobutyl)-1H-indazol-3-yl]-5-methyl-N-(1-methyl-1H-pyrazol-4-yl)-6-oxo-6,7-dihydro-5H-pyrrolo[2,3-d]pyrimidine-5-carboxamide] | C (Category C=SBP in SHRs>40 mmHg)
CC1(C(=O)Nc2cccnc2)C(=O)Nc2nc(-c3nn(CCOC(F)(F)F)c4ncccc34)nc(N)c21 (stereo not drawn) [Example 233, 4-amino-5-methyl-6-oxo-N-pyridin-3-yl-2-{1-[2-(trifluoromethoxy)ethyl]-1H-pyrazolo[3,4-b]pyridin-3-yl}-6,7-dihydro-5H-pyrrolo[2,3-d]pyrimidine-5-carboxamide] | B (Category B=SBP in SHRs 25-40 mmHg)
CC(C)C1(C(N)=O)C(=O)Nc2nc(-c3nn(CCC(F)(F)C(F)(F)F)c4ncccc34)nc(N)c21 (stereo not drawn) [Example 244, 4-amino-5-(1-methylethyl)-6-oxo-2-(1-(3,3,4,4,4-pentafluorobutyl)-1H-pyrazolo[3,4-b]pyridin-3-yl]-6,7-dihydro-5H-pyrrolo[2,3-d]pyrimidine-5-carboxamide] | C (Category C=SBP in SHRs>40 mmHg)
Cc1nnc(C2(C)C(=O)Nc3nc(-c4nn(CCC(F)(F)C(F)(F)F)c5ncccc45)nc(N)c32)o1 (stereo not drawn) [Example 169, 4-Amino-5-Methyl-5-(5-Methyl-1,3,4-Oxadiazol-2-yl)-2-[1-(3,3,4,4,4-Pentafluorobutyl)-1H-Pyrazolo[3,4-B]Pyridin-3-yl]-5,7-Dihydro-6H-Pyrrolo[2,3-D]Pyrimidin-6-One] | C (Category C=SBP in SHRs>40 mmHg)
CC1(c2nnc(C3CC3)o2)C(=O)Nc2nc(-c3nc(CCC(F)(F)C(F)(F)F)n4ncccc34)nc(N)c21 (stereo not drawn) [Example 255, 4-amino-5-(5-cyclopropyl-1,3,4-oxadiazol-2-yl)-5-methyl-2-[7-(3,3,4,4,4-pentafluorobutyl)imidazo[1,5-b]pyridazin-5-yl]-5,7-dihydro-6H-pyrrolo[2,3-d]pyrimidin-6-one] | B (Category B=SBP in SHRs 25-40 mmHg)
CNc1nc(-c2nn(CCC(F)(F)C(F)(F)F)c3cc(Cl)ccc23)nc2c1C(C)(c1ccccc1)C(=O)N2 (stereo not drawn) [Example 188, 2-[6-Chloro-1-(3,3,4,4,4-Pentafluorobutyl)-1H-Indazol-3-yl]-5-Methyl-4-(Methylamino)-5-Phenyl-5,7-Dihydro-6H-Pyrrolo[2,3-D]Pyrimidin-6-One] | B (Category B=SBP in SHRs 25-40 mmHg)
CC1(c2nncs2)C(=O)Nc2nc(-c3nn(CCCC(F)(F)F)c4ncccc34)nc(N)c21 (stereo not drawn) [Example 236, 4-amino-5-methyl-5-(1,3,4-thiadiazol-2-yl)-2-[1-(4,4,4-trifluorobutyl)-1H-pyrazolo[3,4-b]pyridin-3-yl]-5,7-dihydro-6H-pyrrolo[2,3-d]pyrimidin-6-one] | B (Category B=SBP in SHRs 25-40 mmHg)
CC1(C(=O)NC2CC2)C(=O)Nc2nc(-c3nn(CCC(F)(F)C(F)(F)F)c4ncc(Cl)cc34)nc(N)c21 (stereo not drawn) [Example 267, 4-amino-2-[5-chloro-1-(3,3,4,4,4-pentafluorobutyl)-1H-pyrazolo[3,4-b]pyridin-3-yl]-N-cyclopropyl-5-methyl-6-oxo-6,7-dihydro-5H-pyrrolo[2,3-d]pyrimidine-5-carboxamide] | B (Category B=SBP in SHRs 25-40 mmHg)

Same assay, conditions: single oral dose 1 mpk P.O.

SMILES | Maximum peak decrease of systolic blood pressure (SBP) in SHR, Category
CC1(c2ncccn2)C(=O)Nc2nc(-c3nn(CCC(F)(F)C(F)(F)F)c4ncccc34)nc(N)c21 (single isomer, unassigned) [Example 170, 4-Amino-5-Methyl-2-[1-(3,3,4,4,4-Pentafluorobutyl)-1H-Pyrazolo[3,4-B]Pyridin-3-yl]-5-Pyrimidin-2-yl-5,7-Dihydro-6H-Pyrrolo[2,3-D]Pyrimidin-6-One] | C (Category C=SBP in SHRs>40 mmHg)
Cn1ccc(NC(=O)C2(C)C(=O)Nc3nc(-c4nn(CCC(F)(F)C(F)(F)F)c5ncccc45)nc(N)c32)n1 (stereo not drawn) [Example 218, 4-amino-5-methyl-N-(1-methyl-1H-pyrazol-3-yl)-6-oxo-2-[1-(3,3,4,4,4-pentafluorobutyl)-1H-pyrazolo[3,4-b]pyridin-3-yl]-6,7-dihydro-5H-pyrrolo[2,3-d]pyrimidine-5-carboxamide] | C (Category C=SBP in SHRs>40 mmHg)
CC1(C(=O)NC2CC2)C(=O)Nc2nc(-c3nc(CCC(F)(F)C(F)(F)F)n4cc(Cl)ccc34)nc(N)c21 (stereo not drawn) [Example 250, 4-amino-2-[6-chloro-3-(3,3,4,4,4-pentafluorobutyl)imidazo[1,5-a]pyridin-1-yl]-H-cyclopropyl-5-methyl-6-oxo-6,7-dihydro-5H-pyrrolo[2,3-d]pyrimidine-5-carboxamide] | C (Category C=SBP in SHRs>40 mmHg)
NC(=O)C1(C2CC2)C(=O)Nc2nc(-c3nn(CCCC(F)(F)F)c4ncccc34)nc(N)c21 (stereo not drawn) [Example 247, 4-amino-5-cyclopropyl-6-oxo-2-[1-(4,4,4-trifluorobutyl)-1H-pyrazolo[3,4-b]pyridin-3-yl]-6,7-dihydro-5H-pyrrolo[2,3-d]pyrimidine-5-carboxamide] | C (Category C=SBP in SHRs>40 mmHg)
CC1(C(N)=O)C(=O)Nc2nc(-c3nc(CCC(F)(F)C(F)(F)F)n4ncccc34)nc(N)c21 (stereo not drawn) [Example 254, 4-amino-5-methyl-6-oxo-2-[7-(3,3,4,4,4-pentafluorobutyl)imidazo[1,5-b]pyridazin-5-yl]-6,7-dihydro-5H-pyrrolo[2,3-d]pyrimidine-5-carboxamide] | B (Category B=SBP in SHRs 25-40 mmHg)
CC1(C(=O)Nc2ccccn2)C(=O)Nc2nc(-c3nn(CCOC(F)(F)F)c4ncccc34)nc(N)c21 (stereo not drawn) [Example 209, 4-amino-5-methyl-6-oxo-N-pyridin-2-yl-2-{1-[2-(trifluoromethoxy)ethyl]-1H-pyrazolo[3,4-b]pyridin-3-yl}-6,7-dihydro-5H-pyrrolo[2,3-d]pyrimidine-5-carboxamide] | B (Category B=SBP in SHRs 25-40 mmHg)
Cn1cc(C2(C)C(=O)Nc3nc(-c4nn(CCC(F)(F)C(F)(F)F)c5cc(Cl)ccc45)nc(N)c32)cn1 (stereo not drawn) [Example 229, 4-amino-2-[6-chloro-1-(3,3,4,4,4-pentafluorobutyl)-1H-indazol-3-yl]-5-methyl-5-(1-methyl-1H-pyrazol-4-yl)-5,7-dihydro-6H-pyrrolo[2,3-d]pyrimidin-6-one] | C (Category C=SBP in SHRs>40 mmHg)
